Results published in patent publication US20240124443A1, “PLASMIN INHIBITOR, PREPARATION METHOD THEREFOR, AND APPLICATION THEREOF” (SCINNOHUB PHARMACEUTICAL CO., LTD, priority 2021, published 2024).
Where a name gives a salt, the structure may show the parent alone.

What was measured:
[1] = test system: degradation of plasma clots; assay: Plasma clot lysis assay; assay type: biochemical, human; conditions: human plasma, tPA, inhibition of plasma clot degradation in vitro relative to tranexamic acid
Description: To determine the inhibitory effect of the compounds of the invention on the degradation of plasma clots.
3.1 Collect fresh healthy human blood, mix 1 part of anticoagulant (0.109 M trisodium citrate) with 9 parts of blood, centrifuge at 2000×g for 20 min at room temperature, collect the supernatant (plasma), sub-package and store at −80° C. for later use.
3.2 On the day of experiment, the plasma was thawed in a water bath at 37° C., and all reagents except tPA were pre-warmed at 37° C.
3.3 Add 12.5 μL of 80 mM CaCl2 (HEPES buffer, pH 7.4) to a 96-well plate, and then add 25 μL of different concentrations of test compound diluted with normal saline, add an equal volume of normal saline to the negative control well.
3.4 Mix 50 μL of pre-warmed plasma with 12.5 μL of 4 nM tPA (HEPES buffer, pH 7.4), immediately add to a 96-well plate, measure the absorbance at 405 nm every 2 minutes, continuously for 15 hours.
The time corresponding to the median of the absorption value in the descending section—the time corresponding to the median of the absorption value in the ascending section is the plasma clot degradation time (Clot lysis time). Taking the plasma clot lysis time of the negative control well as a reference, calculate the relative value of the plasma clot lysis time in the wells treated with different concentrations of the compound and the plasma clot lysis time of the negative control well to obtain the inhibition rate:
Inhibition rate%=(1−Clot lysis time of negative control well/Clot lysis time of compound treated well)×100%
Taking the log value of the compound concentration as the X-axis, and the percentage inhibition rate as the Y-axis, and dose-response curves were fitted with the software GraphPad Prism 5 by using log (inhibitor) vs. Response-Variable slope to derive IC50 values of compounds inhibiting the degradation of plasma clots.
Formula: Y=min+(max−min)/(1+10^((LogIC50−X)×Hillslope).

[2] = Monkey PK experiment (plasma concentration by LC-MS/MS); assay type: in vivo; conditions: male cynomolgus monkey, 1 mg/kg intravenous injection, single dose, fasted
Description: Male Cynomolgus monkey, normal grade, 3 monkeys each group (N=3)
The compound is weighed and dissolved in normal saline to prepare a 0.5 mg/mL clear solution for intravenous administration.
On the day of the experiment, the animals were administered according to the scheme in the table below. At each time point after administration, approximately 1 mL of blood was collected from the forearm vein and placed in heparin sodium anticoagulation tubes. Blood samples were placed on ice after collection, and the plasma was separated by centrifugation within 1 hour (centrifugation conditions: 2200 g, 10 minutes, 2-8° C.). The plasma samples were stored in a refrigerator at −80° C. until analysis.
The compound concentration in cynomolgus monkey plasma was determined by the following method: • Instruments and equipment: LC-MS/MS-19 (TQ5500, AB SCIEX, USA). • Internal standard: warfarin. • Chromatographic column: ACQUITY UPLC BEH C18, model 1.7 um 2.1*50 mm, purchased from Shenzhen Novah Chemical Technology Co., Ltd.; • Flow rate: 0.60 ml/min. • Column temperature: 40° C. • Mobile phase A: 0.1% formic acid in water. • Mobile phase B: 0.1% formic acid in acetonitrile.
Take 30 μL of the plasma sample prepared from item “2” , add 300 μL MeOH containing 100 ng/mL of internal standard to precipitate protein. The mixture was vortexed for 1 minute and centrifuged at 18000 g for 7 minutes. The supernatant was transferred to a 96-well plate. Inject 4 μL of supernatant into LC-MS/MS for analysis.
Pharmacokinetic parameters were calculated by using Phoenix WinNonlin7.0 software according to blood concentration data of different time points.

[3] = test system: fibrinolysis; conditions: cited from earlier work

Row | SMILES | IC50 ratio (IC50 Examples/IC50 Tranexamic acid) [1] | also measured
1 | Cl.O=C(O)c1ccc2c(n1)CC(C1(O)CC1)NC2 (stereo not shown) [Example 9, 7-(1-hydroxycyclopropyl)-5,6,7,8-tetrahydro-1,6-naphthyridine-2-carboxylic acid hydrochloride] | 0.44 | –
2 | CC(C)CC1Cc2nc(C(=O)O)ccc2CN1.Cl (stereo not shown) [Example 26] | 0.22 | –
3 | Cl.O=C(O)c1ccc2c(n1)CC(C(=O)NCCO)NC2 (stereo not shown) [Example 29] | 2.26 | –
4 | Cl.O=C(O)c1ccc2c(n1)CC(CO)NC2 (stereo not shown) [Example 23] | 0.17 | –
5 | COc1ccc(CCC2Cc3nc(C(=O)O)ccc3CN2)cc1.Cl (stereo not shown) [Example 42] | 0.17 | –
6 | Cl.O=C(O)c1ccc2c(n1)C(N1CCNCC1)CNC2 (stereo not shown) [Example 22] | 0.67 | –
7 | Cl.O=C(O)c1ccc2c(n1)CC(CCC1CCCCC1)NC2 (stereo not shown) [Example 43] | 0.11 | –
8 | Cl.O=C(O)c1ccc2c(n1)CCNC2 [Example 1, 5,6,7,8-tetrahydro-1,6-naphthyridine-2-carboxylic acid hydrochloride] | – | AUC [2]: 4110 ng·h/mL; Cmax [2]: 10600 ng/mL; clearance [2]: 4 mL/min/kg
9 | Cl.O=C(O)c1ccc2c(n1)C(O)CNC2 (stereo not shown) [Example 2, 8-hydroxy-5,6,7,8-tetrahydro-1,6-naphthyridine-2-carboxylic acid hydrochloride] | 1.24 | –
10 | Cl.O=C(O)c1ccc2c(n1)CC(Cc1ccccc1)NC2 (stereo not shown) [Example 27] | 0.67 | –
11 | CC(C)(C)CC1Cc2nc(C(=O)O)ccc2CN1.Cl (stereo not shown) [Example 36] | 0.13 | –
12 | O=C(O)c1ccc2c(n1)CC(CNCCO)NC2 (stereo not shown) [Example 31] | 1.87 | –
13 | Cl.O=C(O)c1ccc2c(n1)CC1(CCCCC1)NC2 [Example 47] | 0.40 | –
14 | Cl.O=C(O)c1ccc2c(n1)C(N1CCOCC1)CNC2 (stereo not shown) [Example 5, 8-morpholino-5,6,7,8-tetrahydro-1,6-naphthyridine-2-carboxylic acid hydrochloride] | 0.29 | –
15 | Cl.O=C(O)c1nc2c(cc1F)CNCC2 [Example 17, 3-fluoro-5,6,7,8-tetrahydro-1,6-naphthyridine-2-carboxylic acid hydrochloride] | 0.34 | –
16 | Cl.O=C(O)c1ccc2c(n1)CC1(CCC1)NC2 [Example 49] | 0.28 | –
17 | NC1CNCc2ccc(C(=O)O)nc21 (stereo not shown) [Example 3, 8-amino-5,6,7,8-tetrahydro-1,6-naphthyridine-2-carboxylic acid dihydrochloride] | 2.89 | –
18 | Cl.O=C(O)c1ccc2c(n1)CC1(CCOCC1)NC2 [Example 44] | 0.23 | –
19 | Cl.O=C(O)c1ccc2c(n1)CC1(CCCC1)NC2 [Example 46] | 0.33 | –
20 | Cl.O=C(O)c1ccc2c(n1)CC(C(=O)OCCCO)NC2 (stereo not shown) [Example 30] | 0.32 | –
21 | Cl.O=C(O)c1ccc2c(n1)C(N1CCS(=O)(=O)CC1)CNC2 (stereo not shown) [Example 6, 8-(1,1-dioxido-thiomorpholino)-5,6,7,8-tetrahydro-1,6-naphthyridine-2-carboxylic acid hydrochloride] | 0.31 | –
22 | NC[C@H]1CC[C@H](C(=O)O)CC1 [tranexamic acid, trans-4-aminomethyl-cyclohexane-carboxylic acid] | – | anti-fibrinolytic activity relative to EACA [3]: about 10 times
23 | Cl.O=C(O)c1ccc2c(n1)CC(C(=O)O)NC2 (stereo not shown) [Example 16, 5,6,7,8-tetrahydro-1,6-naphthyridine-2,7-dicarboxylic acid hydrochloride] | 0.54 | –
